Data taken from ChEMBL document CHEMBL1132245, “Novel and potent 6-chloro-3-pyridinyl ligands for the alpha4beta2 neuronal nicotinic acetylcholine receptor” (J Med Chem, 1999).

Legend:
Type in all cases: protein-complex assay
[1] = target: T1, Neuronal acetylcholine receptor; alpha4/beta2 (Rattus norvegicus, UniProt P09483+P12390); assay: Inhibition of [3H](-)-nicotine binding to recombinant rat alpha4-beta2 nAChR.
[2] = target: T1, Neuronal acetylcholine receptor; alpha4/beta2; assay: Inhibition of [3H](-)-nicotine binding to recombinant rat alpha4-beta2 nAChR was determined; experiment 2
[3] = target: T1, Neuronal acetylcholine receptor; alpha4/beta2; assay: Inhibition of [3H](-)-nicotine binding to recombinant rat alpha4-beta2 nAChR was determined; experiment 1

T1 sequence (P09483 whole entry): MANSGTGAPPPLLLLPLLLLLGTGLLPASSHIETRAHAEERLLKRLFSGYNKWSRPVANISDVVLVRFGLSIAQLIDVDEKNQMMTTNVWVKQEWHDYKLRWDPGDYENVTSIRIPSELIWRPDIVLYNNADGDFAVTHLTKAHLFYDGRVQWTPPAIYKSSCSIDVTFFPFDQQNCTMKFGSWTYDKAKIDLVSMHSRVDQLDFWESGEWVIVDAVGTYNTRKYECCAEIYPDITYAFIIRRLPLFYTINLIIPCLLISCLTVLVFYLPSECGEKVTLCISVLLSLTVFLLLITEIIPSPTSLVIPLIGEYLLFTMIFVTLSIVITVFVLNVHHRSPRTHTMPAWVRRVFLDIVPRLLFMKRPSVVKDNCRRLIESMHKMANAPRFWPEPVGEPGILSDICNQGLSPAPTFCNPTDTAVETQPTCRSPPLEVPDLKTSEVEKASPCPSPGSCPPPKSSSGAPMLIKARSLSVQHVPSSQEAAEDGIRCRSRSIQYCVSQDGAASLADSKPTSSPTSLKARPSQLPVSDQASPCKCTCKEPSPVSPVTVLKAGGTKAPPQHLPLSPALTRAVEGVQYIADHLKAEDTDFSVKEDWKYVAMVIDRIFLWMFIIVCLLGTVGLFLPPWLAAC
T1 sequence (P12390 whole entry): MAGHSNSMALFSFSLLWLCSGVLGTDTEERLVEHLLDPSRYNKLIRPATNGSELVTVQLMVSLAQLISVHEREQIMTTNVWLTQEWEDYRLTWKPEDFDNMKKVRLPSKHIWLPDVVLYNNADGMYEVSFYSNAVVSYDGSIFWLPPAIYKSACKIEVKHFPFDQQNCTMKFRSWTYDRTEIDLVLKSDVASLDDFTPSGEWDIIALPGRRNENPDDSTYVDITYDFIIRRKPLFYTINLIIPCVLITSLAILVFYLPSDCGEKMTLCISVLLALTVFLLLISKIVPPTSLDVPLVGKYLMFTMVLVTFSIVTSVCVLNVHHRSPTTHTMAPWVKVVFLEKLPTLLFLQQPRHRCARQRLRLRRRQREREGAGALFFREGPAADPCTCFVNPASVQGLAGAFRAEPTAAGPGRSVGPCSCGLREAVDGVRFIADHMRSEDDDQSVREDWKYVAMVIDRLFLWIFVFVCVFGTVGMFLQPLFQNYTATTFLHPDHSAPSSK

| Structure (SMILES) | IC50 [1] | IC50 [2] | IC50 [3] |
| --- | --- | --- | --- |
| O=C1NCCN1Cc1ccc(Cl)nc1 | 8.1 µM |  |  |
| CN1CCCC1c1cccnc1Cl (stereo not drawn) | 3.2 µM |  |  |
| SC1=NCCN1Cc1ccc(Cl)nc1 |  | 13.5 µM | 12.6 µM |
| NC1=NCCO1 |  | 95.3 µM | 99.5 µM |
| N=C1NCCN1Cc1ccc(Cl)nc1 [DESNITROIMIDACLOPRID] | 0.006 µM |  |  |
| NC1=NCCCS1 | 160 µM |  |  |
| Clc1ccc(CN2CCN(Cc3ccc(Cl)nc3)CC2)cn1 |  | 1.65 µM | 1.74 µM |
| CCN(Cc1ccc(Cl)nc1)C(=N)NC | 3.3 µM |  |  |
| Clc1ccc(Cn2ccnc2)cn1 | 0.45 µM |  |  |
| CN1CCCC1c1ccc(Cl)nc1 (stereo not drawn) | 0.0019 µM |  |  |
